Measured values as given in ChEMBL document CHEMBL5705903, “A DNA Hypomethylation Signature Predicts Antitumor Activity of LSD1 Inhibitors in SCLC” (Cancer Cell, 2015).
The source made the active and inactive calls. The rule behind the calls is not given here.

Tests used:
[1] = target: Beta-2 adrenergic receptor (Homo sapiens, UniProt P07550); test: Antagonist activity at Adrenergic b2 receptor (unknown origin); format: functional
Cannabinoid receptor 2 = Cannabinoid receptor 2 (Homo sapiens, UniProt P34972); test: Agonist activity at Cannabinoid CB2 receptor (unknown origin); format: functional
Sequence of Cannabinoid receptor 2 (P34972 whole entry): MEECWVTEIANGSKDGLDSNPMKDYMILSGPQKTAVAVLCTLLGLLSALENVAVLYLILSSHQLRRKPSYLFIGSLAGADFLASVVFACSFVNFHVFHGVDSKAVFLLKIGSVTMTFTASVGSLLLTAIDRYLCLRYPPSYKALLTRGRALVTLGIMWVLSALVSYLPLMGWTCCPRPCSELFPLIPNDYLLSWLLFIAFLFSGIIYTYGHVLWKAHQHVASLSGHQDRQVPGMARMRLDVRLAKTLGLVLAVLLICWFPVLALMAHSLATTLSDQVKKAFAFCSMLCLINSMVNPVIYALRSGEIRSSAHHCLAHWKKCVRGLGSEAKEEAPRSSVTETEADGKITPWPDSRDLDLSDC

D(2) dopamine receptor = D(2) dopamine receptor (Homo sapiens, UniProt P14416); test: Antagonist activity at Dopamine D2 receptor (unknown origin); format: functional
Sequence of D(2) dopamine receptor (P14416 whole entry): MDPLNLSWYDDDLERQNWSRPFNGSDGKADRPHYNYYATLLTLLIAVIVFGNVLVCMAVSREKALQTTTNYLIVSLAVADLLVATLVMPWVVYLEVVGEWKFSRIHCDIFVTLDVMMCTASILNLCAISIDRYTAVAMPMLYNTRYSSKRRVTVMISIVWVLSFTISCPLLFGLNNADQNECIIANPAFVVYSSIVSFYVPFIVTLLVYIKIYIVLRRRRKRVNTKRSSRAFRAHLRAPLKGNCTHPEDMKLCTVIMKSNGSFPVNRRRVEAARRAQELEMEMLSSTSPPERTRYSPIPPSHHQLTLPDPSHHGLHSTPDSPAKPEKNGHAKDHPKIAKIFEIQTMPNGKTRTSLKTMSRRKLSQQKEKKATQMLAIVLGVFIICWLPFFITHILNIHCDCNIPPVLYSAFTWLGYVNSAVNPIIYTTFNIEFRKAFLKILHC

Histamine H1 receptor = Histamine H1 receptor (Homo sapiens, UniProt P35367); test: Antagonist activity at Histamine H1 receptor (unknown origin); format: functional
Sequence of Histamine H1 receptor (P35367 whole entry): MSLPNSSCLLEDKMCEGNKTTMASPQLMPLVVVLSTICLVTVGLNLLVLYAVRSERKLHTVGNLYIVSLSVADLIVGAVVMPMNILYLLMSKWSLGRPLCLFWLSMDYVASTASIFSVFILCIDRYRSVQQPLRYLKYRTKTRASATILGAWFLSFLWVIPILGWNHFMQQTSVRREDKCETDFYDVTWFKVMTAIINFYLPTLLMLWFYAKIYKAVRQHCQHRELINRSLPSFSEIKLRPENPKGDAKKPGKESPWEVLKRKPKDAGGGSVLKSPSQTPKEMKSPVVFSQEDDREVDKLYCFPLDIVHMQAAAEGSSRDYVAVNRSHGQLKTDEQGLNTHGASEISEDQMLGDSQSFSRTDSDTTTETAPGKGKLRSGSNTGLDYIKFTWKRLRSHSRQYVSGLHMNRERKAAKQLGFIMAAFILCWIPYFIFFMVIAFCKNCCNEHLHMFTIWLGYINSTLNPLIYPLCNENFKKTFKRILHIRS

Substance-P receptor = Substance-P receptor (Homo sapiens, UniProt P25103); test: Antagonist activity at NK1 receptor (unknown origin); format: functional
Sequence of Substance-P receptor (P25103 whole entry): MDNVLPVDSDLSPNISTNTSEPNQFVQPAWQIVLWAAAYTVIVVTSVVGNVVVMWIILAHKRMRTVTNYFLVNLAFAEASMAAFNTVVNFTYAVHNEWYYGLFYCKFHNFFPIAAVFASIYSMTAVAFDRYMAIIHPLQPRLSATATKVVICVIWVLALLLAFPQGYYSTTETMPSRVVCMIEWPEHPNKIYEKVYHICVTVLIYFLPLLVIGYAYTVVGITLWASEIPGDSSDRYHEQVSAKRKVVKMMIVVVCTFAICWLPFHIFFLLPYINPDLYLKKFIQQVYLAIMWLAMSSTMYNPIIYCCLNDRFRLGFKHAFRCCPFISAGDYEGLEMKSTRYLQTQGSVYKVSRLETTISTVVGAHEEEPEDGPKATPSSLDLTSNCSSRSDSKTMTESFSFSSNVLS

Mu-type opioid receptor = Mu-type opioid receptor (Homo sapiens, UniProt P35372); test: Agonist activity at MOR (unknown origin); format: functional
Sequence of Mu-type opioid receptor (P35372 whole entry): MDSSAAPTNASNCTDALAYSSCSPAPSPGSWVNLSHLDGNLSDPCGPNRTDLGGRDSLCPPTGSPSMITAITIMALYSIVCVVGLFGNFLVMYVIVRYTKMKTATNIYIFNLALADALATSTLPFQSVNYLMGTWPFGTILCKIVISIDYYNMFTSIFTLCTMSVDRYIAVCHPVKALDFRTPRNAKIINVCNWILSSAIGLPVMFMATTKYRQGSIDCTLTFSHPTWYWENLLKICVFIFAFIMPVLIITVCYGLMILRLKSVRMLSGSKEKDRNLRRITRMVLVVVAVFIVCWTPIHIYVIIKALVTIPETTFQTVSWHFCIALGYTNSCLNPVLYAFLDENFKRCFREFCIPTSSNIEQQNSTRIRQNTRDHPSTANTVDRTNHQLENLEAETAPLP

[2] = target: T1, 5-hydroxytryptamine receptor 2C (Homo sapiens, UniProt P28335); test: Antagonist activity at 5-HT2C receptor (unknown origin); format: functional
T1 sequence (P28335 whole entry): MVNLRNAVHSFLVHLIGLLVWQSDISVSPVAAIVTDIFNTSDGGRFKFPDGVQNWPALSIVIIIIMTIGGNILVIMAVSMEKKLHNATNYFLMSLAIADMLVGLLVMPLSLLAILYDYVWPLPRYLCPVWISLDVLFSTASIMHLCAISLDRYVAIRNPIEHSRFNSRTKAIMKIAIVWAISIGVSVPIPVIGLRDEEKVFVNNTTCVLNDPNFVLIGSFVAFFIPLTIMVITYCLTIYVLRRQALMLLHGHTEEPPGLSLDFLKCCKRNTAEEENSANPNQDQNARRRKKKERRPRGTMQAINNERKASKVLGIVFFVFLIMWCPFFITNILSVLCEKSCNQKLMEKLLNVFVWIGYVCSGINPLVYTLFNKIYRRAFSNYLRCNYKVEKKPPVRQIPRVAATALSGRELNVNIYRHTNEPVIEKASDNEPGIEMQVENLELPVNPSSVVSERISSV

[3] = target: Sodium channel protein type 5 subunit alpha (Homo sapiens, UniProt Q14524); test: Inhibition of Nav1.5 (unknown origin)
Sequence of Sodium channel protein type 5 subunit alpha (Q14524 whole entry): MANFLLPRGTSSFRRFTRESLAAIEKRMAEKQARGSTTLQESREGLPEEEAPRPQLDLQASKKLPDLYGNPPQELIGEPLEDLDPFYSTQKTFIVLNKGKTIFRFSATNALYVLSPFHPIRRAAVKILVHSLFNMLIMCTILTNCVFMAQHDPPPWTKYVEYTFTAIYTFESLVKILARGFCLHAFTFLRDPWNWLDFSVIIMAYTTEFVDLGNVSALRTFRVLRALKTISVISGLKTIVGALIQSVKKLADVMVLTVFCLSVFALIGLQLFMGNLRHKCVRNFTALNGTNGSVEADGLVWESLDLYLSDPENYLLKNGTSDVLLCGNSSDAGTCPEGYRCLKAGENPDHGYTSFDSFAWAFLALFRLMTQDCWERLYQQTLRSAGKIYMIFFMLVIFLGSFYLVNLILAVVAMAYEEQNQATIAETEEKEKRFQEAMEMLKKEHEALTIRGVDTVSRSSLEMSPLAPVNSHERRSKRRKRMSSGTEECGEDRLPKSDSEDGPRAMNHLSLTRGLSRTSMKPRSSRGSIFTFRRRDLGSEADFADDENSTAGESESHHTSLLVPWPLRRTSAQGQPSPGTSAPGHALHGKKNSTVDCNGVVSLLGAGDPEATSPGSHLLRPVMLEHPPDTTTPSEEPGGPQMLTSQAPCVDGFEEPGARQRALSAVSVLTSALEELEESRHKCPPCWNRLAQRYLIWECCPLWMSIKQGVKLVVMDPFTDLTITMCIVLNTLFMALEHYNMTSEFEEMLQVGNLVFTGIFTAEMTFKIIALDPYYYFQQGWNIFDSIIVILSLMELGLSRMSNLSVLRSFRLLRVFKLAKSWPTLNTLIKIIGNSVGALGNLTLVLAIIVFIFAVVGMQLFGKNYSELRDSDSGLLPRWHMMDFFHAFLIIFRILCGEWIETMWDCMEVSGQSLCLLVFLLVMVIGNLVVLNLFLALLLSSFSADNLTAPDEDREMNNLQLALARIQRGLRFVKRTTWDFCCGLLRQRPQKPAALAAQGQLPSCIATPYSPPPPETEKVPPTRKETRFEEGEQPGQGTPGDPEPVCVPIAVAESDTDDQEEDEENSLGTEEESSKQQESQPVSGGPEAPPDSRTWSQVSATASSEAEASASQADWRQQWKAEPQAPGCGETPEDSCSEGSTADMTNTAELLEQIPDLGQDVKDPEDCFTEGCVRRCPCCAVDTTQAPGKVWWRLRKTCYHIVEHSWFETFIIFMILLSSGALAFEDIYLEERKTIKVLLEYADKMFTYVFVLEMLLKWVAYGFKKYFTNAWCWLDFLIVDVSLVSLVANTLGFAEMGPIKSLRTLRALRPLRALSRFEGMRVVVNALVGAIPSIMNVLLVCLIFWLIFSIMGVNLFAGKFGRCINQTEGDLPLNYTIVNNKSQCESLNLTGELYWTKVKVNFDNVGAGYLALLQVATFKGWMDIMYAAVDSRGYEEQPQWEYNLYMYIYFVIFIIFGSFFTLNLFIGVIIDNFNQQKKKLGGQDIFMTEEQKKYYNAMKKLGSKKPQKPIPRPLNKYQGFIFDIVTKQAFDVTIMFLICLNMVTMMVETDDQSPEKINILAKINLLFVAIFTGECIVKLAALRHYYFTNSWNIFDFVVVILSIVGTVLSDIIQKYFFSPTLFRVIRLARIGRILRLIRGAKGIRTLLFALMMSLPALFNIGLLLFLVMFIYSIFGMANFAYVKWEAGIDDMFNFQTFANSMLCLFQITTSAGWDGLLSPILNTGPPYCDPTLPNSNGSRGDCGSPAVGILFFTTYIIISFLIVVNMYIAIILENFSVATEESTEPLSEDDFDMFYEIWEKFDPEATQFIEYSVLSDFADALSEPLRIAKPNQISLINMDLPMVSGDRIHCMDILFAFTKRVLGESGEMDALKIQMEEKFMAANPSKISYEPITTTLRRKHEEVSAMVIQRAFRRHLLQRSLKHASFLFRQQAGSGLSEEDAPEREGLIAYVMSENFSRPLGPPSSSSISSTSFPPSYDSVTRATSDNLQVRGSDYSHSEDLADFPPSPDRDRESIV

Aurora kinase B = Aurora kinase B (Homo sapiens, UniProt Q96GD4); test: Inhibition of Aurora B (unknown origin)
Sequence of Aurora kinase B (Q96GD4 whole entry): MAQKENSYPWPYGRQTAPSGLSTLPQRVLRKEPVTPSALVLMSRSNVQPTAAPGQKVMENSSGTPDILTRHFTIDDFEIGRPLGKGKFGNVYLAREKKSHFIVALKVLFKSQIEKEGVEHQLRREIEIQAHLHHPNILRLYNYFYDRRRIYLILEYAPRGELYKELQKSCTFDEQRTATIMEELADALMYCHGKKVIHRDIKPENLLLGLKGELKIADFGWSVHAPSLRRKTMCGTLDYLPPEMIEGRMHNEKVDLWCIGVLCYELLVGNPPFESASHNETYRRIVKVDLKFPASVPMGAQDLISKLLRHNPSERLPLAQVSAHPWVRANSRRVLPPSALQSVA

[4] = AUC (0 to infinity) in mouse tumor at 5 mg/kg, po by HPLC/MS/MS analysis; format: ADME, organism-based, Neoplasm
[5] = Toxicity in mouse xenografted with human NCI-H526 cells assessed as grooming behaviour at 1.5 mg/kg, po administered daily measured for 30 days; format: organism-based; conditions: in vivo, 720 h, time 30 day
[6] = Effect on cleaved PARP level in human NCI-H1417 cells assessed as relative expression at 100 nM measured after 7 days by Western blot analysis (reference value: 0.10); format: functional; conditions: time 7 day
[7] = Effect on cleaved PARP level in human NCI-H1417 cells assessed as fold change at 10 nM measured after 14 days by Western blot analysis (reference value: 1.00); format: functional; conditions: time 14 day
[8] = Effect on cleaved PARP level in human NCI-H526 cells assessed as fold change at 1000 nM measured after 10 days by Western blot analysis (reference value: 1.00); format: functional; conditions: time 10 day
[9] = Effect on cleaved PARP level in human NCI-H524 cells assessed as relative expression at 100 nM measured after 14 days by Western blot analysis (reference value: […]); format: functional; conditions: time 14 day
[10] = Effect on cleaved PARP level in human COLO-668 cells assessed as relative expression at 100 nM measured after 7 days by Western blot analysis (reference value: […]); format: functional; conditions: time 7 day
[11] = Effect on cleaved PARP level in human COLO-668 cells assessed as fold change at 100 nM measured after 7 days by Western blot analysis (reference value: 1.00); format: functional; conditions: time 7 day
[12] = Effect on cleaved PARP level in human NCI-H1694 cells assessed as relative expression at 100 nM measured after 7 days by Western blot analysis (reference value: 0.25); format: functional; conditions: time 7 day
[13] = Effect on cleaved PARP level in human NCI-H69 cells assessed as fold change at 1000 nM measured after 7 days by Western blot analysis (reference value: 1.00); format: functional; conditions: time 7 day
[14] = Effect on cleaved PARP level in human NCI-H69 cells assessed as fold change at 1000 nM measured after 14 days by Western blot analysis (reference value: 1.00); format: functional; conditions: time 14 day
[15] = Effect on cleaved PARP level in human NCI-H510 cells assessed as relative expression at 100 nM measured after 10 days by Western blot analysis (reference value: 0.02); format: functional, NCI-H510A; conditions: time 10 day
[16] = Effect on cleaved PARP level in human NCI-H510 cells assessed as fold change at 1000 nM measured after 10 days by Western blot analysis (reference value: 1.00); format: functional, NCI-H510A; conditions: time 10 day
[17] = Effect on cleaved PARP level in human NCI-H2171 cells assessed as fold change at 10 nM measured after 7 days by Western blot analysis (reference value: 1.00); format: functional; conditions: time 7 day
[18] = Effect on cleaved PARP level in human NCI-H2171 cells assessed as fold change at 1000 nM measured after 10 days by Western blot analysis (reference value: 1.00); format: functional; conditions: time 10 day
[19] = Effect on cleaved PARP level in human NCI-H146 cells assessed as relative expression at 100 nM measured after 7 days by Western blot analysis (reference value: […]); format: functional; conditions: time 7 day
NCI-H510A = test: Antitumor activity against human NCI-H510A cells xenografted in nude mouse assessed as tumor growth inhibition at 1.5 mg/kg, po administered daily measured twice weekly relative to control; format: functional; conditions: read-out: TGI
NCI-H526 [20] = test: Effect on NSE gene expression in human NCI-H526 cells at 1 uM measured after 4 to 7 days by qRT-PCR analysis; format: functional, cell-based; conditions: time 4-7 day
COLO-668 [21] = test: Effect on NSE gene expression in human COLO-668 cells at 1 uM measured after 4 to 7 days by qRT-PCR analysis; format: functional, cell-based; conditions: time 4-7 day
COLO-668 [22] = test: Effect on SYP gene expression in human COLO-668 cells at 1 uM measured after 4 days by qRT-PCR analysis; format: functional, cell-based; conditions: time 4.0 day
NCI-H526 [23] = test: Effect on global H3K4me2 level in human NCI-H526 cells at 10 to 1000 nM measured after 24 hrs by Western blot analysis; format: functional, cell-based; conditions: dose 10-1000 nM
NCI-H526 [24] = test: In vivo inhibition of LSD1 in human NCI-H526 cells xenografted in nude mouse assessed as change in ANXA6 gene expression measured after 24 hrs post single administration by qRT-PCR analysis; format: functional, organism-based; conditions: dose 0.06-135 mg/kg
NCI-H526 [25] = test: In vivo inhibition of LSD1 in human NCI-H526 cells xenografted in nude mouse assessed as change in TSPAN8 gene expression administrated daily for 5 days by qRT-PCR analysis; format: functional, organism-based; conditions: dose 0.02-135 mg/kg, time 5.0 day
NCI-H526 [26] = test: In vivo inhibition of LSD1 in human NCI-H526 cells xenografted in nude mouse assessed as change in TOX3 gene expression administrated daily for 5 days by qRT-PCR analysis; format: functional, organism-based; conditions: dose 0.02-135 mg/kg, time 5.0 day

Sequence of Beta-2 adrenergic receptor (P07550 whole entry): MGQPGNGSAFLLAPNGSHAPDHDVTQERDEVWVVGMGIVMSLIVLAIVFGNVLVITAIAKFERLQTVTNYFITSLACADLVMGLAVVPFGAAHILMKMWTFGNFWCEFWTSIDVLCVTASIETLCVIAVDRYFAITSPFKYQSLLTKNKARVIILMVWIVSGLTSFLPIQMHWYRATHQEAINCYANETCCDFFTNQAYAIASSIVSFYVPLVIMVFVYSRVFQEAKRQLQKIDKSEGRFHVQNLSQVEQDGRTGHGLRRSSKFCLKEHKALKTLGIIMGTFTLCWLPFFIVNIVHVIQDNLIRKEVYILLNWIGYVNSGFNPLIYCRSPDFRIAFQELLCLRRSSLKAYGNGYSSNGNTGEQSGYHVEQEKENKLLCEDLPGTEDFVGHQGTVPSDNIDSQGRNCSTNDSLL

c1ccc([C@@H]2C[C@H]2NC2CCNCC2)cc1
EC50 [1]: > 100 µM
EC50 (Cannabinoid receptor 2): > 100 µM
EC50 (D(2) dopamine receptor): > 100 µM
EC50 (Histamine H1 receptor): > 25 µM
EC50 (Substance-P receptor): > 25 µM
EC50 (Mu-type opioid receptor): > 100 µM
EC50 [2]: > 25 µM
IC50 [3]: > 100 µM
IC50 (Aurora kinase B): > 32 µM

O=C(O)c1ccc(CN2CCC(CN[C@@H]3C[C@H]3c3ccccc3)CC2)cc1 [GSK2879552]
EC50 [1]: > 32 µM
EC50 (Cannabinoid receptor 2): > 100 µM
EC50 (D(2) dopamine receptor): > 100 µM
EC50 (Histamine H1 receptor): > 40 µM
EC50 (Substance-P receptor): > 40 µM
EC50 (Mu-type opioid receptor): > 100 µM
EC50 [2]: > 40 µM
IC50 [3]: 80 µM
IC50 (Aurora kinase B): > 32 µM
AUC(0-inf) [4]: 2690 ng·h/mL
Activity [5]: Non-Toxic
Activity [6]: 0.29
fold change (FC) [7]: 0.82
fold change (FC) [8]: 1.43
Activity [9]: 1.13
Activity [10]: 1.52
fold change (FC) [11]: 1.06
Activity [12]: 0.28
fold change (FC) [13]: 2.21
fold change (FC) [14]: 5.16
Activity [15]: 0.18
fold change (FC) [16]: 12.67
fold change (FC) [17]: 1.53
fold change (FC) [18]: 1.33
Activity [19]: 2.21
inhibition in vivo at 1.5 mg/kg (NCI-H510A): 38%
Activity (NCI-H526 [20]): inactive
Activity (COLO-668 [21]): inactive
Activity (COLO-668 [22]): inactive
Activity (NCI-H526 [23]): inactive
inhibition (NCI-H526 [24]): Dose-Dependent Effect
inhibition (NCI-H526 [25]): Dose-Dependent Effect
inhibition (NCI-H526 [26]): Dose-Dependent Effect
